Like-named read-outs stand apart in the source and are kept apart here.
What was measured:
[1] = test system: S. epidermidis ATCC 35984; test: MIC/MBC microdilution; assay type: cell-based, Staphylococcus epidermidis; settings: Staphylococcus epidermidis; for MBC: ATCC35984, 99.9% reduction, read-out: Minimal bactericidal concentration (*MBC); for MIC: ATCC35984, 24 h, 37 °C, >90% growth inhibition, read-out: Minimal inhibitory concentration (MIC)
Procedure: (§1) The minimum inhibitory concentration (MIC) of the tested monomeric QAS was performed using the microdilution method according to CLSI recommendation (M27-A3). Concentrations from 10 to 1280 µM were analyzed. Strains were incubated with or without compounds (growth control) for 24 h at 37 °C. Three independent replicates were performed. The MIC value was determined spectrophotometrically and the concentration that inhibited more than 90% of growth was determined. Optical density was measured at λ = 590 nm using a 96-well microplate reader (Bio-Rad Universal Hood II).
(§2) To determine the minimum bactericidal concentration (MBC), 10 µL of bacterial suspension incubated with monomeric QAS (MIC concentration and two times higher) was transferred to plates with LB (1% tryptone, 1% yeast extract, 0.5% NaCl) medium. […] The concentration that reduced 99.9% of microbial growth was determined as MBC[54].

S. epidermidis B374 [2] = test: MIC/MBC microdilution; assay type: cell-based, Staphylococcus epidermidis
Procedure: as §1, §2

S. epidermidis SI8 = test: MIC/MBC microdilution; assay type: cell-based, Staphylococcus epidermidis; settings: Staphylococcus epidermidis; for MBC: 99.9% reduction, read-out: Minimal bactericidal concentration (*MBC); for MIC: 24 h, 37 °C, >90% growth inhibition, read-out: Minimal inhibitory concentration (MIC)
Procedure: as §1, §2

S. aureus ATCC 6538 = test: MIC/MBC microdilution; assay type: cell-based, Staphylococcus aureus; settings: for MIC / MBC: Staphylococcus aureus; for MIC: ATCC6538, 24 h, read-out: Minimal inhibitory concentration (MIC); for MBC: ATCC6538, S. aureus ATCC 6538, read-out: Minimal bactericidal concentration (*MBC)
Procedure: as §1, §2

S. aureus MRSA R98 = test: MIC/MBC microdilution; assay type: cell-based, Staphylococcus aureus; settings: for MBC / MIC: Staphylococcus aureus, MRSA; for MBC: read-out: Minimal bactericidal concentration (*MBC); for MIC: read-out: Minimal inhibitory concentration (MIC)
Procedure: as §1, §2

E. coli ATCC 11229 = test: MIC/MBC microdilution; assay type: cell-based, Escherichia coli; settings: for MIC: read-out: Minimal inhibitory concentration (MIC); for MBC: read-out: Minimal bactericidal concentration (*MBC)
Procedure: as §1, §2

E. coli H64 = test: MIC/MBC microdilution; assay type: cell-based, Escherichia coli; settings: Escherichia coli; for MIC: H64, 24 h, E. coli H64, 24 h, 37 °C, >90% growth inhibition, read-out: Minimal inhibitory concentration (MIC); for MBC: H64, E. coli H64, 99.9% reduction, read-out: Minimal bactericidal concentration (*MBC)
Procedure: as §1, §2

P. aeruginosa ATCC 27853 = test: MIC/MBC microdilution; assay type: cell-based, Pseudomonas aeruginosa; settings: Pseudomonas aeruginosa; for MIC: ATCC27853, 24 h, P. aeruginosa ATCC 27853, 24 h, 37 °C, >90% growth inhibition, read-out: Minimal inhibitory concentration (MIC); for MBC: ATCC27853, P. aeruginosa ATCC 27853, 99.9% reduction, read-out: Minimal bactericidal concentration (*MBC)
Procedure: as §1, §2

P. aeruginosa PAO1 [3] = test: MIC/MBC microdilution; assay type: cell-based, Pseudomonas aeruginosa; settings: Pseudomonas aeruginosa; for MBC: 99.9% reduction, read-out: Minimal bactericidal concentration (*MBC); for MIC: 24 h, 37 °C, >90% growth inhibition, read-out: Minimal inhibitory concentration (MIC)
Procedure: as §1, §2

[4] = Critical micelle concentration by conductometric measurements; assay type: physicochemical; settings: aqueous solution, 25 °C
Procedure: Values of critical micelle concentrations (CMC) of cationic surfactants were measured conductrometrically. N5721 conductometer (Tel-Eko Projekt sp z o.o., Poland), equipped with N5981 probe, was calibrated using 0.1 M, 0.01 M and 0.001 M KCl aqueous solutions (conductivities equal to 1.287 S/m, 0.141 S/m and 0.0147 S/m, respectively) and used without temperature compensation mode (constant temperature 25 °C was kept during all calibration procedures and measurements). Values of specific conductivities of at least 15 different concentrations for each surfactant were measured and plotted versus concentration; the discontinuity point was used to determine critical micelle concentration.

[5] = test system: S. epidermidis ATCC 35984; test: Adhesion to stainless steel; assay type: cell-based, Staphylococcus epidermidis; settings: for adhesion to stainless steel (remaining): 1280 µM
P. aeruginosa PAO1 [6] = test: Adhesion to stainless steel; assay type: cell-based, Pseudomonas aeruginosa; settings: P. aeruginosa PAO1
[7] = test system: S. epidermidis ATCC 35984 biofilm; test: Biofilm eradication; assay type: cell-based, Staphylococcus epidermidis; settings: 10 µM, 4 h
Procedure: (§3) Biofilm eradication assay was performed according to the method of Christensen et al. with modifications. A standardized bacterial (OD = 0.6) suspension of 100 µL was spotted into a 96-well polystyrene plate. They were incubated for 24 h at 37 °C. Cultures were removed, the plate was washed and then concentrations of QAS ([…]) were added, incubated for 4 h at 37 °C with 100 rpm shaking. The wells were washed with miliQ and fixed at 60 °C for 20 min. The wells were […] with 0.1% crystal violet solution for 5 min. The wells were washed with miliQ until the unfixed dye was completely eluted. The absorbance at λ = 590 nm was measured using a reader (Bio-Rad Universal Hood II). The positive control was an untreated biofilm. Three independent test trials were performed.

[8] = test system: Salmonella typhimurium TA100; test: Mutagenicity (Ames test); assay type: cell-based; settings: for Number of colonies: ± SD
Procedure: (§4) Two reference strains of Salmonella Typhimurium TA98 and Salmonella Typhimurium TA100, deficient in histidine synthesis, were used for this study according to the method proposed by Ames et al. with modifications. […] The mixture was mixed and poured onto a Davis minimal medium plate. The mixture without the test compound was used as a negative control. The positive control was a mixture of bacterial culture, biotin-histidine solution, and sodium azide (at a concentration of 15 μg/mL for strain TA100) or acriflavine (at a concentration of 100 μg/mL for strain TA98). Plates were incubated for 48 h at 37 °C, and then colonies were counted. The mutagenicity ratio (MR), the ratio of the number of revertants grown in the presence of the test compound to the number of spontaneously occurring revertants (negative control), was calculated. A mutagenic ratio equal to or greater than 1.7 indicates the mutagenic potential of the tested compounds. The study was performed in three times.

[9] = test system: Salmonella typhimurium TA98; test: Mutagenicity (Ames test); assay type: cell-based; settings: for Number of colonies: ± SD
Procedure: as §4

[10] = test system: S. epidermidis B374 biofilm; test: Biofilm eradication; assay type: cell-based, Staphylococcus epidermidis; settings: 160 µM, 4 h
Procedure: as §3

S. epidermidis B374 [11] = test: Adhesion to polystyrene plate; assay type: cell-based, Staphylococcus epidermidis; settings: 160 µM
Procedure: Adhesion analysis to polystyrene surfaces was determined according to the method of Rodrigues et al. with modifications. Polystyrene 96-well plates were incubated with the respective compound concentrations (10–1280 µM) for 4 h at 37 °C with 100 rpm shaking. The plates were then washed with miliQ and inoculated with 100 µL of bacterial suspension (OD = 0.4–0.6). Plates were incubated for 6 h at 37 °C with 100 rpm shaking. Wells were rinsed and fixed for 20 min at 60 °C. They were then […] with 0.1% crystal violet solution for 5 min. The wells were washed with miliQ until the unfixed dye was completely eluted. The absorbance at λ = 590 nm was measured using a reader (Bio-Rad Universal Hood II). The positive control was a surface not treated with QAS. Three independent trials were performed.

[12] = test system: P. aeruginosa PAO1 biofilm; test: Biofilm eradication; assay type: cell-based, Pseudomonas aeruginosa; settings: 20 µM, 4 h
Procedure: as §3

[13] = test system: S. epidermidis B374 biofilm; test: Biofilm-oriented antiseptics test (BOAT); assay type: cell-based, Staphylococcus epidermidis; settings: 640 µM
From the text: Colonies were then counted.

[14] = S. aureus ATCC 6538, 24 h, 37 °C, >90% growth inhibition
[15] = 24 h, 37 °C, >90% growth inhibition
[16] = S. epidermidis B374, 99.9% reduction
[17] = S. epidermidis B374, 24 h, 37 °C, >90% growth inhibition
[18] = E. coli ATCC 11229, 99.9% reduction
[19] = E. coli ATCC 11229, 24 h, 37 °C, >90% growth inhibition

## CC(=O)[O-].CCCCCCCCCCCC(=O)N(C)CCC[N+](C)(C)C [AcC12]
[1]
  MBC: 640 µM
  MIC: 640 µM
S. epidermidis B374 [2]; Staphylococcus epidermidis, B374, 24 h, S. epidermidis B374, 24 h, 37 °C, >90% growth inhibition, read-out: Minimal inhibitory concentration (MIC)
  MIC: 320 µM
S. epidermidis B374 [2]; Staphylococcus epidermidis, B374, S. epidermidis B374, 99.9% reduction, read-out: Minimal bactericidal concentration (*MBC)
  MBC: 320 µM
S. epidermidis SI8
  MBC: 640 µM
  MIC: 640 µM
S. aureus ATCC 6538; [14]
  MIC: 1280 µM
S. aureus ATCC 6538; 99.9% reduction
  MBC: 1280 µM
S. aureus MRSA R98; 99.9% reduction
  MBC: 640 µM
S. aureus MRSA R98; [15]
  MIC: 640 µM
E. coli ATCC 11229; Escherichia coli, ATCC11229, 24 h, E. coli ATCC 11229, 24 h, 37 °C, >90% growth inhibition
  MIC: 1280 µM
E. coli ATCC 11229; Escherichia coli, ATCC11229, E. coli ATCC 11229, 99.9% reduction
  MBC: 1280 µM
E. coli H64
  MIC: 1280 µM
  MBC: 1280 µM
P. aeruginosa ATCC 27853
  MIC: > 1280 µM
  MBC: > 1280 µM
P. aeruginosa PAO1 [3]
  MBC: > 1280 µM
  MIC: > 1280 µM
[4]
  CMC: 0.018 mol/L
[5]
  adhesion to stainless steel (remaining): 13 to 30%
P. aeruginosa PAO1 [6]; 1280 µM
  adhesion to stainless steel (remaining): 13 to 30%
[7]
  biofilm destruction: approximately 40%
[8]; ¼ MIC
  Mutagenicity index: 0.94
  Number of colonies: 264.7 ± 15
[8]; ½ MIC
  Mutagenicity index: 1.08
  Number of colonies: 304 ± 11.3
[9]; ¼ MIC
  Mutagenicity index: 0.96
  Number of colonies: 22 ± 5.3
[9]; ½ MIC
  Mutagenicity index: 0.91
  Number of colonies: 20.8 ± 4.4

## CC(=O)[O-].CCCCCCCCCCCCCC(=O)N(C)CCC[N+](C)(C)C [AcC14, [(3-tetradecyilomethylo-amine)propyl] trimethylammonium acetate]
[1]
  MBC: 160 µM
  MIC: 160 µM
S. epidermidis B374 [2]; [16]
  Minimal bactericidal concentration (*MBC): 40 *40 µM
S. epidermidis B374 [2]; [17]
  Minimal inhibitory concentration (MIC): 40 *40 µM
S. epidermidis SI8
  MBC: 160 µM
  MIC: 160 µM
S. aureus ATCC 6538; [14]
  MIC: 160 µM
S. aureus ATCC 6538; 99.9% reduction
  MBC: 160 µM
S. aureus MRSA R98; 99.9% reduction
  MBC: 160 µM
S. aureus MRSA R98; [15]
  MIC: 160 µM
E. coli ATCC 11229; [18]
  Minimal bactericidal concentration (*MBC): 320 *320 µM
E. coli ATCC 11229; [19]
  Minimal inhibitory concentration (MIC): 320 *320 µM
E. coli H64
  MIC: 160 µM
  MBC: 160 µM
P. aeruginosa ATCC 27853
  MIC: 1280 µM
  MBC: > 1280 µM
P. aeruginosa PAO1 [3]
  MBC: > 1280 µM
  MIC: > 1280 µM
[4]
  CMC: 0.0054 mol/L
[5]
  adhesion to stainless steel (remaining): 15%
[10]
  biofilm eradication: 70–80%
[8]; ¼ MIC
  Mutagenicity index: 0.97
  Number of colonies: 194 ± 1
[8]; ½ MIC
  Mutagenicity index: 0.95
  Number of colonies: 189 ± 1.4
[9]; ¼ MIC
  Mutagenicity index: 0.96
  Number of colonies: 24.5 ± 3.5
[9]; ½ MIC
  Mutagenicity index: 1.01
  Number of colonies: 25.7 ± 4

## CC(=O)[O-].CCCCCCCCCCCCCCCC(=O)N(C)CCC[N+](C)(C)C [AcC16]
[1]
  MBC: 640 µM
  MIC: 640 µM
S. epidermidis B374 [2]; [16]
  Minimal bactericidal concentration (*MBC): 40 *40 µM
S. epidermidis B374 [2]; [17]
  Minimal inhibitory concentration (MIC): 40 *40 µM
S. epidermidis SI8
  MBC: 10 µM
  MIC: 10 µM
S. aureus ATCC 6538; S. aureus ATCC 6538, 99.9% reduction
  Minimal bactericidal concentration (*MBC): 80 *80 µM
S. aureus ATCC 6538; [14]
  Minimal inhibitory concentration (MIC): 80 *80 µM
S. aureus MRSA R98; 99.9% reduction
  Minimal bactericidal concentration (*MBC): 10 *10 µM
S. aureus MRSA R98; [15]
  Minimal inhibitory concentration (MIC): 10 *10 µM
E. coli ATCC 11229; [18]
  MBC: 160 µM
E. coli ATCC 11229; [19]
  MIC: 80 µM
E. coli H64
  MIC: 160 µM
  MBC: 320 µM
P. aeruginosa ATCC 27853
  MIC: > 1280 µM
  MBC: > 1280 µM
P. aeruginosa PAO1 [3]
  MBC: > 1280 µM
  MIC: > 1280 µM
[4]
  CMC: 0.0016 mol/L
[5]; 160 µM
  reduction of adhesion to stainless steel: approximately 93%
P. aeruginosa PAO1 [6]; 160 µM
  reduction of adhesion to stainless steel: 58%
S. epidermidis B374 [11]
  reduction of adhesion to polystyrene: approximately 44%
[10]
  biofilm eradication: 70–80%
[12]
  biofilm eradication: 50–60%
[13]; 30 min
  cell survival in biofilm (BOAT): 30%
[13]; 60 min
  cell survival in biofilm (BOAT): 9.5%
[8]; ¼ MIC
  Mutagenicity index: 0.54
  Number of colonies: 107.5 ± 2.1
[8]; ½ MIC
  Mutagenicity index: 0.66
  Number of colonies: 132.5 ± 13.4
[9]; ¼ MIC
  Mutagenicity index: 0.93
  Number of colonies: 23.7 ± 4.7
[9]; ½ MIC
  Mutagenicity index: 1.11
  Number of colonies: 28.3 ± 6.4
